Measured values published in PMC12051620, “Molecular basis underlying the specificity of an antagonist AA92593 for mammalian melanopsins” (The Journal of Biological Chemistry, 2025).

Experiments:
Experiment in all cases: GsX GloSensor assay with Gsα/q11
Assay type in all cases: cell-based
Conditions in all cases: 16.7 μM AA92593, COS-1 cells
Xenopus Opn4x WT = biological target: T1, Xenopus Opn4x WT (Xenopus laevis, UniProt O57422)
T1 construct: expressed in transfected cells; host or cells: COS-1
T1 sequence (O57422 1-334 limits assumed): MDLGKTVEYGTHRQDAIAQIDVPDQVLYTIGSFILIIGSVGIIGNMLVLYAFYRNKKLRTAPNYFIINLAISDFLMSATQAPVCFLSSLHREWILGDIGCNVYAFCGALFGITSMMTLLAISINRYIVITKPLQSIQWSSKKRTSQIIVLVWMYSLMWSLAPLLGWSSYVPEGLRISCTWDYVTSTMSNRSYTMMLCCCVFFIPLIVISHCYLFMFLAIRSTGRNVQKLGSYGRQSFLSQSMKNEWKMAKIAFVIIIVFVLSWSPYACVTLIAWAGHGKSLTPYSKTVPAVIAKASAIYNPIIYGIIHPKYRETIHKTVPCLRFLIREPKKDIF
Excerpt: (§1) The GsX GloSensor assay using Gsα/q11 of Xenopus Opn4x and chicken Opn4-1 detected the light-dependent Gq activation in both non-mammalian-type melanopsins (Fig. 6, A and D). […] The ineffectiveness of AA92593 is consistent with the fact that Phe-94^2.61, Ser-188^ECL2, and Ser-269^6.52 are not conserved among non-mammalian-type melanopsins (Figs. 2A, S2 and S3). If these three residues are important for the antagonistic effect against melanopsins, the introduction of Phe-94^2.61/Ser-188^ECL2/Ser-269^6.52 into the non-mammalian-type melanopsins would make them susceptible to AA92593. As expected, the substitutions of C94^2.61F/T188S^ECL2/A269^6.52S in Xenopus Opn4x and chicken Opn4-1 increased their sensitivity to AA92593 by ∼49% and ∼22%, respectively (Fig. 6, B and E, G–I). Based on the loss-of-function properties of F94^2.61C/S188^ECL2T/S269^6.52A mutants of mammalian-type melanopsins and the gain-of-function properties of C94^2.61F/T188^ECL2S/A269^6.52S mutants of non-mammalian-type melanopsins (Figs. 2G, 3E, 6, G and H), we propose that Phe-94^2.61, Ser-188^ECL2, and Ser-269^6.52 are required for specific interactions with AA92593 as an effective antagonist. […]

chicken Opn4-1 WT = test system: chicken Opn4-1 WT
Excerpt: as §1

[1] = test system: jumping spider rhodopsin-1 WT
Excerpt: We next tested the effect of AA92593 on jumping spider rhodopsin-1, a Gq-coupled visual opsin but not melanopsin (see Figs. 2, S2, and S3) ([41]). Similar to non-mammalian-type and invertebrate melanopsins, jumping spider rhodopsin-1 was not sensitive to AA92593 as assessed using the GsX GloSensor assay (Fig. 7L). […] The introduction of I189^ECL2W/Y207^5.42F impaired the light-dependent cAMP responses even in the absence of AA92593 (Fig. S11). Taken together, the non-melanopsin Gq-coupled opsin cannot be functionally converted to an AA92593-sensitive type by site-directed mutagenesis, in contrast to non-mammalian-type and invertebrate melanopsins. […]
For GloSensor assay, opsins, GloSensor assay sensor (coded by pGlo-22F), and NanoBiT-tagged G proteins were transiently expressed in COS-1 cells (kindly provided from Dr David Farrens, Oregon Health and Science University) using PEI as described previously ([24], [52]). […] For GFP-fluorescence microscopy, a 35-mm cell culture dish (IWAKI) was transfected with 2 μg melanopsin-GFP plasmid and 8 μg PEI in 400 μl Opti-mem and 1.2 ml D-MEM. […]

In the case of COc1ccc(S(=O)(=O)N2CCCCC2)cc1C [AA92593], the “inhibition of the light-dependent responses” value (Xenopus Opn4x WT) is reported as “did not effectively inhibit”, the “inhibition of the light-dependent responses” value (chicken Opn4-1 WT) is reported as “did not effectively inhibit” and the “sensitivity to AA92593” value [1] is reported as “not sensitive”.
